Laboratory results published in US7169927B2, “Indole-amide derivatives and their use as glycogen phosphorylase inhibitors” (AstraZeneca AB, priority 2002, dated 2007).

Assays:
conscious dogs = conditions: following a glucagon challenge; cited from earlier work
hepatocytes = conditions: cited from earlier work; for glucose output: glucagon stimulated
db/db and ob/ob mice = conditions: cited from earlier work
[1] = target: T1, Human recombinant liver glycogen phosphorylase a (hrl GPa) (Homo sapiens, UniProt P06737); test: Glycogen phosphorylase a inhibition, glycogen degradation (multienzyme coupled assay, NADH fluorescence); format: biochemical; conditions: glycogen degradation direction
T1 sequence (P06737 1-847): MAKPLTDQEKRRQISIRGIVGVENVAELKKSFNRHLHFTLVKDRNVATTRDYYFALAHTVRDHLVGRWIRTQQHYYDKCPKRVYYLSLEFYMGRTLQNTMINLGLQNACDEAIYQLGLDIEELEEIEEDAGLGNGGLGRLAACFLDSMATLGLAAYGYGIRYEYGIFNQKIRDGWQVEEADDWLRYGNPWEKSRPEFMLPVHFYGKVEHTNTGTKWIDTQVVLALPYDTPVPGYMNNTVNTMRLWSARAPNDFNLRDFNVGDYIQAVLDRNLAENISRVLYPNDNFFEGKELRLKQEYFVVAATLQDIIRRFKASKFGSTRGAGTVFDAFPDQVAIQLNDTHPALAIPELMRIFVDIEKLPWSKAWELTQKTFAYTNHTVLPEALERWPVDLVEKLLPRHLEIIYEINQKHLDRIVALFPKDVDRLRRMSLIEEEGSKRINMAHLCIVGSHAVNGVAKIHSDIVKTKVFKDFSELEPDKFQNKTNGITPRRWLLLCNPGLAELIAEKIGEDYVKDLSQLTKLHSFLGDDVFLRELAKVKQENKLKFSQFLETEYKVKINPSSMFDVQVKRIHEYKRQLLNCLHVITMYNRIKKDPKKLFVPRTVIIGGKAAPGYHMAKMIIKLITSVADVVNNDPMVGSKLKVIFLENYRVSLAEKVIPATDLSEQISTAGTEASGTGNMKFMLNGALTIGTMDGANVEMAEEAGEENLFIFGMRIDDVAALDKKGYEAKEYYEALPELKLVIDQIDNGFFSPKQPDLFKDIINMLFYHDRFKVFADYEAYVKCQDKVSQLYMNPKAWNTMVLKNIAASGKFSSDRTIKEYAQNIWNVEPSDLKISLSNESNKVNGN
Protocol: The activity of the compounds is alternatively determined by measuring the inhibitory effect of the compounds on glycogen degradation, the production of glucose-1-phosphate from glycogen is monitored by the multienzyme coupled assay, as described in EP 0 846 464 A2, general method of Pesce et al (Pesce, M A, Bodourian, S H, Harris, R C, and Nicholson, J F (1977) Clinical Chemistry 23, […]). The reactions were in 384well microplate format in a volume of 50 μl. The change in fluorescence due to the conversion of the co-factor NAD to NADH is measured at 340 nm excitation, 465 nm emission in a Tecan Ultra Multifunctional Microplate Reader. The reaction is in 50 mM HEPES, 3.5 mM KH2PO4, 2.5 mM MgCl2, 2.5 mM ethylene glycol-bis(b-aminoethyl ether) N,N,N′N′tetraacetic acid, 100 mM KCl, 8 mM D-(+)-glucose pH7.2, containing 0.5 mM dithiothreitol, the assay buffer solution. Human recombinant liver glycogen phosphorylase a (hrl GPa) 20 nM is pre-incubated in assay buffer solution with 6.25 mM NAD, 1.25 mg type III glycogen at 1.25 mg ml^−1 the reagent buffer, for 30 minutes. […] The non-inhibited activity of GPa is measured in the presence of 10 μl 5% DMSO in assay buffer solution and maximum inhibition measured in the presence of 5 mgs ml^−1 N-ethylmaleimide. […] Relative Fluoresence Units (RFUs) are measured at 340 nm excitation, 465 nm emission. […]

IC50 [1] [µM] | Structure (SMILES) | arterial plasma glucose (conscious dogs) | hepatic glucose output (conscious dogs) | glucagon stimulated glycogenolysis (hepatocytes) | glucose output (hepatocytes) | plasma glucose concentration (db/db and ob/ob mice)
– | CCN1C(C)=C(C(=O)OC(C)C)C(c2ccccc2Cl)C2=C1COC2=O (stereo not drawn) [Bay R 3401] | reduced significantly | reduced significantly | – | – | –
– | CN(C)C(=O)[C@H](O)[C@H](Cc1ccccc1)NC(=O)c1cc2cc(Cl)ccc2[nH]1 [CP91149] | – | – | reduce | reduce | reduced, in a dose related manner
– | O=C(N[C@@H](Cc1ccc(F)cc1)C(=O)N1CCC(O)CC1)c1cc2cc(Cl)ccc2[nH]1 [CP320626] | – | – | reduce | reduce | reduced, in a dose related manner
4.6 | Cc1csc(NC(=O)CN2C(=O)C(NC(=O)c3cc4cc(Cl)ccc4[nH]3)Cc3ccccc32)n1 (stereo not drawn) [Example 14, 5-chloro-N-(1-{2-[(4-methyl-1,3-thiazol-2-yl)amino]-2-oxoethyl}-2-oxo-1,2,3,4-tetrahydroquinolin-3-yl)-1H-indole-2-carboxamide] | – | – | – | – | –
